Here are results for 14 molecules from US20250163104A1, “MACROCYCLIC IMMUNOMODULATORS” (priority 2021, published 2025).

Like-named read-outs stand apart in the source and are kept apart here. Where a SMILES comes first, the peptide text is derived from it. Bridges are numbered along the chain shown (N, C = ends). [ ]: non-standard residue; d: D form. The star is where a group is joined. ξ: configuration not given here. Phe(3-CF3) = N[C@@H](Cc1cccc(C(F)(F)F)c1)C(=O)O; Ala(morpholin-4-yl) = N[C@@H](CN1CCOCC1)C(=O)O; Phe(4-COOH) = N[C@@H](Cc1ccc(C(=O)O)cc1)C(=O)O; Bip = N[C@@H](Cc1ccc(-c2ccccc2)cc1)C(=O)O; Phe(3-Me) = Cc1cccc(C[C@H](N)C(=O)O)c1; Phe(4-Me) = Cc1ccc(C[C@H](N)C(=O)O)cc1; 1Nal = N[C@@H](Cc1cccc2ccccc12)C(=O)O; Val(3-OH) = CC(C)(O)[C@H](N)C(=O)O; Cha = N[C@@H](CC1CCCCC1)C(=O)O; Cit = NC(=O)NCCC[C@H](N)C(=O)O; Thr(3ξ) = CC(O)[C@H](N)C(=O)O; NMeNle = CCCC[C@H](NC)C(=O)O; dDab = NCC[C@@H](N)C(=O)O; Carboxymethyl = O=C(O)C*; Orn = NCCC[C@H](N)C(=O)O; Dab = NCC[C@H](N)C(=O)O; Dap = NC[C@H](N)C(=O)O

In the assay the target is T1, human PD-1 / PD-L1-Ig binding on Jurkat cell line over-expressing human PD-1 (Jurkat-PD-1) (Homo sapiens, UniProt Q15116).
T1 construct: expressed in transfected cells; host or cells: Jurkat
Nature of the assay: Jurkat-PD-1 Cell Binding High-Content Screening Assay (CBA). Type of assay: cell-based. The note with it: PE-labeled PD-L1-Ig 20 nM final. In outline:
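Read-out: high-content imaging of PE-tagged PD-L1-Ig bound to Jurkat cells overexpressing human PD-1, after fixation with 4% paraformaldehyde and Hoechst 33342 nuclear staining. Ligand was used at 20 nM final for 1 hour, after a 2 h compound exposure at 37° C in serum-containing DMEM.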

[1] abbreviates: Jurkat-PD-1 cells, read-out: Jurkat HPD1_PDL1 IC50.

T1 sequence (Q15116 25-288): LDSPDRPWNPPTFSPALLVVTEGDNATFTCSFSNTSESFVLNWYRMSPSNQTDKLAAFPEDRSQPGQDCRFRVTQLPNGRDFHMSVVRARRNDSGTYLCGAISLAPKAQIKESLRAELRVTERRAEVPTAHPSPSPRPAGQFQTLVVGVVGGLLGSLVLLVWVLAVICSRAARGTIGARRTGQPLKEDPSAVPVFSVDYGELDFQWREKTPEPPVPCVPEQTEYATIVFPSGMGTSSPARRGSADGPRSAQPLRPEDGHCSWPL

Usually IC50 stands for the concentration needed to halve the response being measured. Turning to `Cc1ccc(C[C@@H]2NC(=O)[C@H](CCN)NC(=O)[C@@H](CC(C)C)NC(=O)[C@H](CCCN)NC(=O)[C@H](CCC(=O)O)NC(=O)[C@H](Cc3ccc(-c4ccccc4)cc3)NC(=O)[C@H](C(C)C)NC(=O)[C@H](Cc3c[nH]c4ccccc34)NC(=O)[C@H](CC(=O)O)NC(=O)[C@H](Cc3ccc(OCC(=O)O)cc3)NC(=O)[C@H](CN)NC(=O)CSC[C@@H](C(=O)N[C@@H](C)C(N)=O)NC(=O)[C@H]([C@@H](C)O)NC(=O)[C@H](C(C)C)NC2=O)cc1` [Compound 1471] ({CH2CO}-[Dap]Y(Carboxymethyl)DWV[Bip]E[Orn][dL][Dab][Phe(4-Me)]VTCA-NH2; thioether N-14), under setting [1], the IC50 stood at 305 nM. For the molecule `Cc1cccc(C[C@@H]2NC(=O)[C@H](CC(=O)O)NC(=O)[C@H](Cc3ccc(OCC(=O)O)cc3)NC(=O)[C@H](CN)NC(=O)CSC[C@@H](C(=O)N[C@@H](CCN)C(N)=O)NC(=O)[C@H](CCCN)NC(=O)[C@H](C(C)C)NC(=O)[C@H](CC3CCCCC3)NC(=O)[C@H](CCN)NC(=O)[C@@H](CC(C)C)NC(=O)[C@@H](CCN)NC(=O)[C@H](Cc3ccc(O)cc3)NC(=O)[C@H](Cc3ccc(-c4ccccc4)cc3)NC(=O)[C@H](Cc3ccc(O)cc3)NC2=O)c1` [Compound 2039] ({CH2CO}-[Dap]Y(Carboxymethyl)D[Phe(3-Me)]Y[Bip]Y[dDab][dL][Dab][Cha]V[Orn]C[Dab]-NH2; thioether N-14), under setting [1], the half-maximal inhibitory concentration (IC50) was 12.9 nM. Consider `Cc1cccc(C[C@@H]2NC(=O)[C@H](CC(=O)O)NC(=O)[C@H](Cc3ccc(C(=O)O)cc3)NC(=O)[C@H](C(C)O)NC(=O)CSC[C@@H](C(=O)N[C@@H](CCN)C(N)=O)NC(=O)[C@H](CO)NC(=O)[C@H](C(C)(C)O)NC(=O)[C@H](CC3CCCCC3)NC(=O)[C@H](CCN)NC(=O)[C@@H](CC(C)C)NC(=O)[C@H](CCCN)NC(=O)[C@H](Cc3ccc(OCC(=O)O)cc3)NC(=O)[C@H](Cc3ccc(-c4ccccc4)cc3)NC(=O)[C@H](Cc3ccc(C(=O)O)cc3)NC2=O)c1` (stereo partly drawn) [Compound 2635] ({CH2CO}-[Thr(3ξ)][Phe(4-COOH)]D[Phe(3-Me)][Phe(4-COOH)][Bip]Y(Carboxymethyl)[Orn][dL][Dab][Cha][Val(3-OH)]SC[Dab]-NH2; thioether N-14), for which, under setting [1], the IC50 was 4.5 nM. Same read-out and setting: the result for `CC(C)C[C@@H]1NC(=O)[C@H](Cc2c[nH]c3ccccc23)NC(=O)[C@H](CC(=O)O)NC(=O)[C@H](Cc2ccc(OCC(=O)O)cc2)NC(=O)[C@H](CCN)NC(=O)CSC[C@@H](C(=O)N[C@@H](CC(N)=O)C(N)=O)NC(=O)[C@H](CO)NC(=O)[C@H](C(C)C)NC(=O)[C@H](CC2CCCCC2)NC(=O)[C@H](CCN)NC(=O)[C@@H](CC(C)C)NC(=O)[C@H](CCCN)NC(=O)[C@H](C(C)O)NC(=O)[C@H](Cc2ccc(-c3ccccc3)cc2)NC1=O` (stereo partly drawn) [Compound 2558] ({CH2CO}-[Dab]Y(Carboxymethyl)DWL[Bip][Thr(3ξ)][Orn][dL][Dab][Cha]VSCN-NH2; thioether N-14) reads 14 nM.

Turning to `CC[C@H](C)[C@@H]1NC(=O)[C@H](Cc2ccc(-c3ccccc3)cc2)NC(=O)[C@H](C(C)C)NC(=O)[C@H](Cc2c[nH]c3ccccc23)NC(=O)[C@H](CC(=O)O)NC(=O)[C@H](Cc2ccc(O)cc2)NC(=O)[C@H](CN)NC(=O)CSC[C@@H](C(=O)N[C@@H](C)C(N)=O)NC(=O)[C@H]([C@@H](C)O)NC(=O)[C@H](C(C)C)NC(=O)[C@H](CC2CCCCC2)NC(=O)[C@H](CCCNC(=N)N)NC(=O)[C@@H](CC(C)C)NC(=O)[C@H](CCCN)NC1=O` [Compound 1145] ({CH2CO}-[Dap]YDWV[Bip]I[Orn][dL]R[Cha]VTCA-NH2; thioether N-14), the IC50 under setting [1] came out at 8.7 nM. Consider `CCC(C)[C@@H]1NC(=O)[C@H](Cc2ccc(-c3ccccc3)cc2)NC(=O)[C@H](C(C)C)NC(=O)[C@H](Cc2c[nH]c3ccccc23)NC(=O)[C@H](CC(=O)O)NC(=O)[C@H](Cc2ccc(-c3cccc(C(=O)O)c3)cc2)NC(=O)[C@H](CN)NC(=O)CSC[C@@H](C(=O)N[C@@H](C)C(N)=O)NC(=O)[C@H]([C@@H](C)O)NC(=O)[C@H](C(C)C)NC(=O)[C@H](CC2CCCCC2)NC(=O)[C@H](CCN)NC(=O)[C@@H](CC(C)C)NC(=O)[C@H](CCCN)NC1=O` (some centres unmarked) [Compound 2219], for which, under setting [1], the IC50 is 13.4 nM. As to `CC(C)C[C@H]1NC(=O)[C@H](CCCN)NC(=O)[C@H](Cc2ccc(C(=O)O)cc2)NC(=O)[C@H](Cc2ccc(-c3ccccc3)cc2)NC(=O)[C@H](Cc2cccc3ccccc23)NC(=O)[C@H](Cc2cccc(C(F)(F)F)c2)NC(=O)[C@H](CC(=O)O)NC(=O)[C@H](Cc2ccc(C(=O)O)cc2)NC(=O)[C@H](CN2CCOCC2)NC(=O)CSC[C@@H](C(=O)N[C@@H](CCN)C(N)=O)NC(=O)[C@H](CCC(=O)O)NC(=O)[C@H](C(C)C)NC(=O)[C@H](CC2CCCCC2)NC(=O)[C@H](CCN)NC1=O` [Example 2737] ({CH2CO}-[Ala(morpholin-4-yl)][Phe(4-COOH)]D[Phe(3-CF3)][1Nal][Bip][Phe(4-COOH)][Orn][dL][Dab][Cha]VEC[Dab]-NH2; thioether N-14), under setting [1], the IC50 is 5.4 nM. With `CCC(C)[C@@H]1NC(=O)[C@H](Cc2ccc(-c3ccccc3)cc2)NC(=O)[C@H](C(C)C)NC(=O)[C@H](Cc2cccc(C)c2)NC(=O)[C@H](CC(=O)O)NC(=O)[C@H](Cc2ccc(-c3cccc(C(=O)O)c3)cc2)NC(=O)[C@H](Cc2ccncc2)NC(=O)CSC[C@@H](C(=O)N[C@@H](C)C(N)=O)NC(=O)[C@H]([C@@H](C)O)NC(=O)[C@H](C(C)C)NC(=O)[C@H](CC2CCCCC2)NC(=O)[C@H](CCN)NC(=O)[C@@H](CC(C)C)NC(=O)[C@H](CCCN)NC1=O` (some centres unmarked) [Compound 2226], the IC50 under setting [1] turned out to be 25.4 nM. Consider `Cc1cccc(C[C@@H]2NC(=O)[C@H](CC(=O)O)NC(=O)[C@H](Cc3ccc(OCC(=O)O)cc3)NC(=O)[C@H](CCCNC(=N)N)NC(=O)CSC[C@@H](C(=O)N[C@@H](CO)C(N)=O)NC(=O)[C@H](CO)NC(=O)[C@H](C(C)O)NC(=O)[C@H](CC3CCCCC3)NC(=O)[C@H](CCN)NC(=O)[C@@H](CC(C)C)NC(=O)[C@H](CCCN)NC(=O)[C@H](CCCNC(N)=O)NC(=O)[C@H](Cc3ccc(-c4ccccc4)cc3)NC(=O)[C@H](C(C)C)NC2=O)c1` (stereo partly drawn) [Compound 2598] ({CH2CO}-RY(Carboxymethyl)D[Phe(3-Me)]V[Bip][Cit][Orn][dL][Dab][Cha][Thr(3ξ)]SCS-NH2; thioether N-14), for which, under setting [1], the half-inhibitory concentration (IC50) worked out at 14 nM. Turning to `CCCC[C@H]1C(=O)N[C@@H](Cc2ccc(C(=O)O)cc2)C(=O)N[C@@H](CC(=O)O)C(=O)N[C@@H](Cc2cccc(C)c2)C(=O)N[C@@H](Cc2ccc(OCC(=O)O)cc2)C(=O)N[C@@H](Cc2ccc(-c3ccccc3)cc2)C(=O)N[C@@H](Cc2ccc(OCC(=O)O)cc2)C(=O)N[C@@H](CCCN)C(=O)N[C@H](CC(C)C)C(=O)N[C@@H](CCN)C(=O)N[C@@H](CC2CCCCC2)C(=O)N[C@@H](C(C)(C)O)C(=O)N[C@@H](CCC(=O)O)C(=O)N[C@H](C(=O)N[C@@H](CCN)C(N)=O)CSCC(=O)N1C` [Compound 2688] ({CH2CO}-[NMeNle][Phe(4-COOH)]D[Phe(3-Me)]Y(Carboxymethyl)[Bip]Y(Carboxymethyl)[Orn][dL][Dab][Cha][Val(3-OH)]EC[Dab]-NH2; thioether N-14), the IC50 under setting [1] turned out to be 41.3 nM.

As for `CC(C)C[C@@H]1NC(=O)[C@H](Cc2c[nH]c3ccccc23)NC(=O)[C@H](CC(=O)O)NC(=O)[C@H](Cc2ccc(OCC(=O)O)cc2)NC(=O)[C@H](CN)NC(=O)CSC[C@@H](C(=O)NCC(N)=O)NC(=O)[C@H](CO)NC(=O)[C@H](C(C)C)NC(=O)[C@H](CC(C)C)NC(=O)[C@H](CC(N)=O)NC(=O)[C@@H](CC(C)C)NC(=O)[C@H](CCN)NC(=O)[C@H](C(C)C)NC(=O)[C@H](Cc2ccc(-c3ccccc3)cc2)NC1=O` [Compound 1280] ({CH2CO}-[Dap]Y(Carboxymethyl)DWL[Bip]V[Dab][dL]NLVSCG-NH2; thioether N-14), under “Jurkat HPD1_PDL1 IC50, Jurkat-PD-1 cells”, the IC50 turned out to be 9.7 nM. As to `CC[C@H](C)[C@@H]1NC(=O)[C@H](Cc2c[nH]c3ccccc23)NC(=O)[C@H](CC(=O)O)NC(=O)[C@H](Cc2ccc(OCC(=O)O)cc2)NC(=O)[C@H](CN)NC(=O)CSC[C@@H](C(=O)N[C@@H](C)C(N)=O)NC(=O)[C@H]([C@@H](C)O)NC(=O)[C@H](C(C)C)NC(=O)[C@H](CC2CCCCC2)NC(=O)[C@H](CCN)NC(=O)[C@@H](CC(C)C)NC(=O)[C@H](CCCN)NC(=O)[C@H]([C@@H](C)CC)NC(=O)[C@H](Cc2ccc(-c3ccccc3)cc2)NC1=O` [Compound 1725] ({CH2CO}-[Dap]Y(Carboxymethyl)DWI[Bip]I[Orn][dL][Dab][Cha]VTCA-NH2; thioether N-14), the IC50 under setting [1] was determined as 24.7 nM. Same read-out and setting: as for `CC(=O)NCCCC[C@@H]1NC(=O)CSC[C@@H](C(=O)N[C@@H](CO)C(N)=O)NC(=O)[C@H](C(C)O)NC(=O)[C@H](C(C)C)NC(=O)[C@H](CC2CCCCC2)NC(=O)[C@H](CCN)NC(=O)[C@@H](CC(C)C)NC(=O)[C@H](CCCN)NC(=O)[C@H](CCCNC(N)=O)NC(=O)[C@H](Cc2ccc(-c3ccccc3)cc2)NC(=O)[C@H](C(C)C)NC(=O)[C@H](Cc2cccc(C)c2)NC(=O)[C@H](CC(=O)O)NC(=O)[C@H](Cc2ccc(OCC(=O)O)cc2)NC1=O` (stereo partly drawn) [Compound 2595] ({CH2CO}-K(Ac)Y(Carboxymethyl)D[Phe(3-Me)]V[Bip][Cit][Orn][dL][Dab][Cha]V[Thr(3ξ)]CS-NH2; thioether N-14), the figure is 9.9 nM. For the molecule `CC(C)C[C@H]1NC(=O)[C@H](CCCN)NC(=O)[C@H](Cc2ccc(C(=O)O)cc2)NC(=O)[C@H](Cc2ccc(-c3ccccc3)cc2)NC(=O)[C@H](Cc2ccc(C(=O)O)cc2)NC(=O)[C@H](Cc2cccc(C(F)(F)F)c2)NC(=O)[C@H](CC(=O)O)NC(=O)[C@H](Cc2ccc(C(=O)O)cc2)NC(=O)[C@H](CN2CCOCC2)NC(=O)CSC[C@@H](C(=O)N[C@@H](CCN)C(N)=O)NC(=O)[C@H](CCC(=O)O)NC(=O)[C@H](C(C)C)NC(=O)[C@H](CC2CCCCC2)NC(=O)[C@H](CCN)NC1=O` [Example 2712] ({CH2CO}-[Ala(morpholin-4-yl)][Phe(4-COOH)]D[Phe(3-CF3)][Phe(4-COOH)][Bip][Phe(4-COOH)][Orn][dL][Dab][Cha]VEC[Dab]-NH2; thioether N-14), under setting [1], the IC50 worked out at 2.8 nM.
